Data on 26 compounds can be found in ChEMBL document CHEMBL1154519, “Synthesis of novel di- and tricationic carbapenems with potent anti-MRSA activity” (Bioorg Med Chem Lett, 2009).

Structures are written as SMILES. Converted amounts (≈) assume the structure as drawn.

Series [1] deals with Staphylococcus aureus. As to the kind of experiment: Antibacterial activity against carbapenem-resistant Staphylococcus aureus M-126HR. It is filed as functional.
Series [2] has as its system Staphylococcus aureus. The experiment in a line: Antibacterial activity against methicillin-resistant Staphylococcus aureus M-126. It is filed as functional.
The subject of series [3] is Staphylococcus aureus. The experiment in a line: Antibacterial activity against methicillin-resistant Staphylococcus aureus 209P JC1. It is filed as functional.
Series [4] deals with Staphylococcus aureus. The experiment in a line: Antibacterial activity against methicillin-resistant Staphylococcus aureus. The format is functional.
Series [5] is described as follows: Solubility in water at 5 mg/mL. The format is physicochemical.

`CSc1c2sc(C3=C(C(=O)[O-])N4C(=O)[C@H]([C@@H](C)O)[C@H]4[C@H]3C)cn2c[n+]1Cc1ccc(Cl)cc1`: the figures for the MIC in the series on Staphylococcus aureus [1], against Staphylococcus aureus [2] and in the series with Staphylococcus aureus [3] were 1.56 µg/mL (≈ 3.1 µM), 0.78 µg/mL (≈ 1.55 µM) and < 0.006 µg/mL, respectively.
For `CSc1c2sc(C3=C(C(=O)O)N4C(=O)[C@H]([C@@H](C)O)[C@H]4[C@H]3C)cn2c[n+]1Cc1ccccc1C[n+]1ccccc1.[Br-].[Br-]`, in that order: 3.13 µg/mL, 1.56 µg/mL and < 0.006 µg/mL.
For `CCN(CC)C(=O)c1ccc(C[n+]2cn3cc(C4=C(C(=O)[O-])N5C(=O)[C@H]([C@@H](C)O)[C@H]5[C@H]4C)sc3c2SC)cc1`, the MIC in the series on Staphylococcus aureus [1] is 6.25 µg/mL (≈ 11 µM); in the series with Staphylococcus aureus [2] it was 1.56 µg/mL (≈ 2.74 µM); against Staphylococcus aureus [3], 0.013 µg/mL (≈ 0.0229 µM).
For `CSc1c2sc(C3=C(C(=O)[O-])N4C(=O)[C@H]([C@@H](C)O)[C@H]4[C@H]3C)cn2c[n+]1Cc1cccc(O)c1`, in that order: 1.56 µg/mL (≈ 3.21 µM), 0.39 µg/mL (≈ 0.803 µM) and < 0.006 µg/mL.
On to `CSc1c2sc(C3=C(C(=O)[O-])N4C(=O)[C@H]([C@@H](C)O)[C@H]4[C@H]3C)cn2c[n+]1CC(N)=O`, for which the results for the MIC against Staphylococcus aureus [1], with Staphylococcus aureus [2] and against Staphylococcus aureus [3] were 3.13 µg/mL (≈ 7.17 µM), 1.56 µg/mL (≈ 3.57 µM) and < 0.006 µg/mL, respectively.
For `CSc1c2sc(C3=C(C(=O)O)N4C(=O)[C@H]([C@@H](C)O)[C@H]4[C@H]3C)cn2c[n+]1Cc1cccc(C[N+]23CC[N+](C)(CC2)CC3)c1.[I-].[I-].[I-]`, in that order: 1.56 µg/mL, 0.78 µg/mL and < 0.006 µg/mL.
For `CSc1c2sc(C3=C(C(=O)O)N4C(=O)[C@H]([C@@H](C)O)[C@H]4[C@H]3C)cn2c[n+]1Cc1cccc(C[N+]2(C)CCOCC2)c1.[Br-].[Br-]`, in that order: 3.13 µg/mL, 0.78 µg/mL and < 0.006 µg/mL.
For `CSc1c2sc(C3=C(C(=O)O)N4C(=O)[C@H]([C@@H](C)O)[C@H]4[C@H]3C)cn2c[n+]1Cc1cccc(C[N+]2(C)CCCC2)c1.[Br-].[Br-]`, in that order: 3.13 µg/mL, 0.78 µg/mL and < 0.006 µg/mL.
With `CSc1c2sc(C3=C(C(=O)[O-])N4C(=O)[C@H]([C@@H](C)O)[C@H]4[C@H]3C)cn2c[n+]1Cc1ccc(C#N)cc1`, the figures for the MIC in the series with Staphylococcus aureus [1], against Staphylococcus aureus [2] and in the series with Staphylococcus aureus [3] were 3.13 µg/mL (≈ 6.33 µM), 0.78 µg/mL (≈ 1.58 µM) and < 0.006 µg/mL, respectively.
For `CSc1c2sc(C3=C(C(=O)O)N4C(=O)[C@H]([C@@H](C)O)[C@H]4[C@H]3C)cn2c[n+]1Cc1cccc(C[N+]23CC[N+](CC(N)=O)(CC2)CC3)c1.[Br-].[I-].[I-]`, in that order: 1.56 µg/mL, 0.78 µg/mL and < 0.006 µg/mL.
For `CSc1c2sc(C3=C(C(=O)O)N4C(=O)[C@H]([C@@H](C)O)[C@H]4[C@H]3C)cn2c[n+]1Cc1cccc(C[n+]2ccc3ccccc3c2)c1.[Br-].[Br-]`, in that order: 1.56 µg/mL, 0.78 µg/mL and < 0.006 µg/mL.
For `CSc1c2sc(C3=C(C(=O)O)N4C(=O)[C@H]([C@@H](C)O)[C@H]4[C@H]3C)cn2c[n+]1Cc1cccc(C[n+]2ccsc2)c1.[Br-].[Br-]`, in that order: 3.13 µg/mL, 0.78 µg/mL and < 0.006 µg/mL.
In the case of `CN[C@H](CC(C)C)C(=O)N[C@H]1C(=O)N[C@@H](CC(N)=O)C(=O)N[C@H]2C(=O)N[C@H]3C(=O)N[C@H](C(=O)N[C@H](C(=O)O)c4cc(O)cc(O)c4-c4cc3ccc4O)[C@H](O)c3ccc(c(Cl)c3)Oc3cc2cc(c3O[C@@H]2O[C@H](CO)[C@@H](O)[C@H](O)[C@H]2O[C@H]2C[C@](C)(N)[C@H](O)[C@H](C)O2)Oc2ccc(cc2Cl)[C@H]1O` [VANCOMYCIN], the MIC was 1.56 µg/mL (≈ 1.08 µM) in the series on Staphylococcus aureus [1], 1.56 µg/mL (≈ 1.08 µM) against Staphylococcus aureus [2] and 0.78 µg/mL (≈ 0.538 µM) against Staphylococcus aureus [3]. This compound came in with an MIC50 in the series on Staphylococcus aureus [4] of 1.56 µg/mL (≈ 1.08 µM). Moreover, the MIC90 against Staphylococcus aureus [4] came out at 1.56 µg/mL (≈ 1.08 µM).
`C[C@@H](O)[C@H]1C(=O)N2C(C(=O)O)=C(SCCNC=N)C[C@H]12` [IMIPENEM ANHYDROUS]: the MIC in the series on Staphylococcus aureus [1] was determined as 100 µg/mL (≈ 334 µM); against Staphylococcus aureus [2] it was 25 µg/mL (≈ 83.5 µM); against Staphylococcus aureus [3], 0.013 µg/mL (≈ 0.0434 µM).
As for `CSc1c2sc(C3=C(C(=O)[O-])N4C(=O)[C@H]([C@@H](C)O)[C@H]4[C@H]3C)cn2c[n+]1Cc1cccc(N)c1`, the values for the MIC against Staphylococcus aureus [1], in the series with Staphylococcus aureus [2] and in the series on Staphylococcus aureus [3] were 3.13 µg/mL (≈ 6.46 µM), 0.78 µg/mL (≈ 1.61 µM) and < 0.006 µg/mL, respectively.
For `CSc1c2sc(C3=C(C(=O)O)N4C(=O)[C@H]([C@@H](C)O)[C@H]4[C@H]3C)cn2c[n+]1Cc1cccc(C[n+]2ccccc2)c1.[Br-].[Br-]`, in that order: 1.56 µg/mL, 0.78 µg/mL and < 0.006 µg/mL.
For `CSc1c2sc(C3=C(C(=O)O)N4C(=O)[C@H]([C@@H](C)O)[C@H]4[C@H]3C)cn2c[n+]1Cc1cccc(C[n+]2cccc(C(N)=O)c2)c1.[Br-].[Br-]`, in that order: 1.56 µg/mL, 0.39 µg/mL and < 0.006 µg/mL.
Consider `CSc1c2sc(C3=C(C(=O)O)N4C(=O)[C@H]([C@@H](C)O)[C@H]4[C@H]3C)cn2c[n+]1Cc1cccc(C[n+]2cc3sccn3c2)c1.[Br-].[Br-]`, for which the MIC was 1.56 µg/mL with Staphylococcus aureus [1], 0.78 µg/mL against Staphylococcus aureus [2] and < 0.006 µg/mL in the series with Staphylococcus aureus [3].
`CSc1c2sc(C3=C(C(=O)O)N4C(=O)[C@H]([C@@H](C)O)[C@H]4[C@H]3C)cn2c[n+]1Cc1ccc(C[N+]2(C)CCOCC2)cc1.[Br-].[Br-]`: the MIC in the series on Staphylococcus aureus [1] is 3.13 µg/mL; against Staphylococcus aureus [2], 1.56 µg/mL; with Staphylococcus aureus [3] it was < 0.006 µg/mL.
For `CSc1c2sc(C3=C(C(=O)O)N4C(=O)[C@H]([C@@H](C)O)[C@H]4[C@H]3C)cn2c[n+]1Cc1cccc(C[N+]23CC[N+](CCO)(CC2)CC3)c1.[Br-].[I-].[I-]`, in that order: 1.56 µg/mL, 0.78 µg/mL and < 0.006 µg/mL.
Turning to `CSc1c2sc(C3=C(C(=O)O)N4C(=O)[C@H]([C@@H](C)O)[C@H]4[C@H]3C)cn2c[n+]1Cc1ccccc1C[N+]1(C)CCOCC1.[Br-].[Br-]`, the figures for the MIC in the series on Staphylococcus aureus [1], against Staphylococcus aureus [2] and in the series with Staphylococcus aureus [3] were 3.13 µg/mL, 1.56 µg/mL and < 0.006 µg/mL, respectively.
Consider `CSc1c2sc(C3=C(C(=O)O)N4C(=O)[C@H]([C@@H](C)O)[C@H]4[C@H]3C)cn2c[n+]1Cc1cccc(C[N+]23CC[N+](CCCN)(CC2)CC3)c1.[I-].[I-].[I-]`, for which the results for the MIC with Staphylococcus aureus [1], in the series with Staphylococcus aureus [2] and with Staphylococcus aureus [3] were 0.78 µg/mL, 0.39 µg/mL and < 0.006 µg/mL, respectively. For the same compound, the solubility in series [5] came to 20 mg/mL. The compound further gave an MIC50 against Staphylococcus aureus [4] of 0.39 µg/mL. In the series on Staphylococcus aureus [4], this compound yielded an MIC90 of 0.78 µg/mL.
Turning to `CSc1c2sc(C3=C(C(=O)O)N4C(=O)[C@H]([C@@H](C)O)[C@H]4[C@H]3C)cn2c[n+]1Cc1ccc(C[n+]2ccccc2)cc1.[Br-].[Br-]`, the MIC was 1.56 µg/mL with Staphylococcus aureus [1], 0.78 µg/mL in the series with Staphylococcus aureus [2] and < 0.006 µg/mL in the series with Staphylococcus aureus [3].
Take `COc1cccc(C[n+]2cn3cc(C4=C(C(=O)[O-])N5C(=O)[C@H]([C@@H](C)O)[C@H]5[C@H]4C)sc3c2SC)c1`: the MIC in the series with Staphylococcus aureus [1] was 1.56 µg/mL (≈ 3.12 µM); with Staphylococcus aureus [2], 0.78 µg/mL (≈ 1.56 µM); against Staphylococcus aureus [3], < 0.006 µg/mL.
For `CSc1c2sc(C3=C(C(=O)[O-])N4C(=O)[C@H]([C@@H](C)O)[C@H]4[C@H]3C)cn2c[n+]1Cc1ccc(C(=O)O)cc1`, in that order: 12.5 µg/mL (≈ 24.3 µM), 3.13 µg/mL (≈ 6.09 µM) and 0.025 µg/mL (≈ 0.0487 µM).
For `CSc1c2sc(C3=C(C(=O)[O-])N4C(=O)[C@H]([C@@H](C)O)[C@H]4[C@H]3C)cn2c[n+]1Cc1ccccc1`, in that order: 1.56 µg/mL (≈ 3.32 µM), 0.39 µg/mL (≈ 0.831 µM) and < 0.006 µg/mL.
